Laboratory results taken from patent publication US9089850B2, “Method and apparatus for separation of pharmaceutical materials on the basis of their density” (Syracuse University, priority 2009, dated 2015).
Read-outs that look alike come from different tables or passages of the source.

What was measured:
[1] = Density gradient analysis of fresh, quickly crystallized sulfathiazole samples; format: physicochemical; conditions: relative amount of form in density gradient; benzene/chloroform to tetrachloroethylene gradient
Description: Our density gradient methodology is a refinement and extension to the pharmaceutical industry of existing well-established methodologies in other fields. [Bomstein & Steberl, 1959; Kind & Summerscales, 1966; US 2004/6,709,871 B2; Richards, 1999; ASTM D 1505-98; ISO 1183-2:2004; Yanagi, 2010; Doom, 2010; Chernov, 2009a.b; Moshammer, 2009; Fleurier, 2009; Kato, 2009; Deng, 2008, 2009; Park, 2008; Lu, 2006; Hersam, 2006]. A density gradient is made with a “gradient maker” consisting of two chambers connected through a stopcock and with a second stopcock on one of the containers to an outflow tube. A mixer is used in the outflow chamber.
We have developed this technique to optimize reliability and visibility of the resulting separated materials. In particular, we have created a device that permits the formation of identical gradients in one overall unobstructed container (see FIG. 3 and FIG. 4). These columns are at the outer wall of the overall cylindrical container. A central black column permits viewing of the materials in each column individually. The tubes that will contain the samples of crystalline material are open at the bottom; the gradient maker fills all columns simultaneously forming identical gradients.
A density gradient was prepared in the device described above using a mixture of benzene and chloroform (ρ=1.32 g/cm^3) as one liquid and tetrachloroethylene (ρ=1.62 g/cm^3) as the other.
Fresh crystalline samples of solid sulfathiazole were prepared by crystallizing about 50 mg of sulfathiazole (Sigma-Aldrich lot 028K1522) from water, methanol, ethanol, isopropanol and n-butanol by dissolving them at about 55° C. and then cooling to ambient temperature to form crystals at which point material was harvested. All materials were made at the same time, isolated within an hour of each other and dried with a stream of argon gas.
Based on the density gradient analysis, this rapid crystallization gives from water a mixture of forms III and IV in about equal amount, from both methanol and ethanol form II and III, from isopropanol a mixture of forms I, II and III and from n-butanol form I. The bands for this last material are distinctly more compact than those of the other forms.
One of the major benefits of the gradient method is that it provides an immediate visual report of the number of materials in an API preparation. A qualitative interpretation of the relative amounts of components in the gradient is easily made. A more quantitative estimate could be obtained by a simple light scattering analysis with simple added apparatus that performs either transmission or 90 degree scattering measurements. Calibration of the light scattering signal as a function of the amount of API could be performed using a sample in a very steep gradient (and thus not separated). This would make this a semi-quantitative method.

[2] = polymorphic form expected for the crystallization solvent, previous work [Parmar, 2007]; cited from earlier work
[3] = cited from earlier work
[4] = Seeding experiment in n-propanol with flotation density test; format: physicochemical; conditions: crystals slowly grown in n-propanol at ambient temperature, seeded with material of form III density
Description: Parmar, 2007 states that crystallization from n-propanol yields form I and that that form is stable in this solvent. In a seeding experiment we harvested material that was the right density for form III and used this to seed crystallization in n-propanol. The resulting crystals, slowly grown at ambient temperature, are not consistent with form I or form III, but are consistent with form II. The density by a flotation density test indicates this material to be form II. The observation that form II is obtained in this case is quite probably due to the presence of a small amount of form II in the predominantly form III sample. […] That is not the case with our seed crystals.

Form II [1] | Form III [1] | Form IV [1] | SMILES | Expected [23] [2] | also measured
minor | major | major | Nc1ccc(S(=O)(=O)Nc2nccs2)cc1 [Tube A, sulfathiazole] | Form IV | –
major | major | minor | Nc1ccc(S(=O)(=O)Nc2nccs2)cc1 [Tube B, sulfathiazole] | Form II | –
major | major | minor | Nc1ccc(S(=O)(=O)Nc2nccs2)cc1 [Tube C, sulfathiazole] | Form IV | –
major | minor | very | Nc1ccc(S(=O)(=O)Nc2nccs2)cc1 [Tube D, sulfathiazole] | Form III | Form I [1]: very
– | – | – | Nc1ccc(S(=O)(=O)Nc2nccs2)cc1 [Tube E, sulfathiazole] | Form I | Form I [1]: major
– | – | – | Nc1ccc(S(=O)(=O)Nc2nccs2)cc1 [form I, sulfathiazole] | – | density ([3]; single crystal x-ray results [Blagden, 1998], listed as I): 1.500
– | – | – | Nc1ccc(S(=O)(=O)Nc2nccs2)cc1 [form II, sulfathiazole] | – | density ([3]; single crystal x-ray results [Blagden, 1998], listed as II): 1.551
– | – | – | Nc1ccc(S(=O)(=O)Nc2nccs2)cc1 [form III, sulfathiazole] | – | density ([3]; single crystal x-ray results [Blagden, 1998], listed as III): 1.569
– | – | – | Nc1ccc(S(=O)(=O)Nc2nccs2)cc1 [form IV, sulfathiazole] | – | density ([3]; single crystal x-ray results [Blagden, 1998], listed as IV): 1.595
– | – | – | Nc1ccc(S(=O)(=O)Nc2nccs2)cc1 [form V, sulfathiazole] | – | density ([3]; synchrotron x-ray powder diffraction study [Chan, 1999]): 1.484
– | – | – | Nc1ccc(S(=O)(=O)Nc2nccs2)cc1 [sulfathiazole] | – | polymorphic form by flotation density test [4]: form II
